The assay concerns the target T1, Polyunsaturated fatty acid 5-lipoxygenase (Homo sapiens, UniProt P09917).
T1 sequence (P09917 whole entry): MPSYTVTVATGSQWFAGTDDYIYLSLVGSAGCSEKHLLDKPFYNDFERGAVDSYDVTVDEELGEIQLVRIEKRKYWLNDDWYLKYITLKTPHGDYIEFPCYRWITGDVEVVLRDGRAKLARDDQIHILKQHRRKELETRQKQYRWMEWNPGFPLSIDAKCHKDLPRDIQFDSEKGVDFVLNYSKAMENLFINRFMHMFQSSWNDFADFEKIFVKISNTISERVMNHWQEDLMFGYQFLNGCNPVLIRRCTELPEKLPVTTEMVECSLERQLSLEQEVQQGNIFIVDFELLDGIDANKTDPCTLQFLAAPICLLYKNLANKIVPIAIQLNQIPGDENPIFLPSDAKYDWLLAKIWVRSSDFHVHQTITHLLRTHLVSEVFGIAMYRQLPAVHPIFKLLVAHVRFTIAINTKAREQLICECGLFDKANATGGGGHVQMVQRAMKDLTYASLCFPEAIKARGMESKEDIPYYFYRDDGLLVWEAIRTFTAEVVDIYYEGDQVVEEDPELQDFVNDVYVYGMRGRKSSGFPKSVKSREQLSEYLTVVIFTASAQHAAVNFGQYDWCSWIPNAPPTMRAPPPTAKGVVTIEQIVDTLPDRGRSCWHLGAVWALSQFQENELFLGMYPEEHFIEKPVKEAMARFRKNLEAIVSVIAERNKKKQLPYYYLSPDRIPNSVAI
In words: The compound was tested in vitro for inhibition against 5-lipoxygenase in intact human neutrophils.
Regarding `NC(=O)N(O)[C@H]1C[C@H](c2cc3ccccc3s2)C1`, the IC50 – broadly, the midpoint of a concentration-inhibition curve – was 380 nM. That is a sub-micromolar value. For `NC(=O)N(O)[C@H]1C[C@@H](c2cccc(Oc3ccc(F)cc3)c2)C1` the value was 170 nM; for `CC(/C=C/c1cccc(Oc2ccc(F)cc2)c1)N(O)C(N)=O` (stereo not drawn), 80 nM.

(Values after ChEMBL document CHEMBL1127152, “Design and synthesis of achiral 5-lipoxygenase inhibitors employing the cyclobutyl group” (Bioorg Med Chem Lett, 1993).)
